Assay results published in patent publication EP0908457B1, “3-(1,2-benzisothiazol- and isoxazol-5-Y1)-2,4(1H,3H)-pyrimidinedione or thione and 3-(1,2-benzisothiazol- and isoxazol-5-y1)-4(3H)-pyrimidinone or thione herbicidal agents” (BASF AKTIENGESELLSCHAFT, priority 1997, dated 1999).

How the values were obtained:
Assay type in all cases: in vivo
[1] = test system: Monochoria vaginalis, Presl.; assay: Preemergence weed control under flooded paddy conditions, MOOVA (Monochoria); settings: preemergence, flooded paddy; on herbicidal effect rating, MOOVA: meaning of each grade not given here
[2] = test system: Echinochloa oryzoides (Ard.) Fritsch.; assay: Preemergence weed control under flooded paddy conditions, ECHORC (Watergrass (Calif.)); settings: preemergence, flooded paddy; on herbicidal effect rating, ECHORC: meaning of each grade not given here
Sagittaria pygmaea, L. = assay: Preemergence weed control under flooded paddy conditions, SAGPY (Arrowhead (Pygmaea)); settings: preemergence, flooded paddy; on herbicidal effect rating, SAGPY: meaning of each grade not given here
[3] = test system: Cyperus serotinus, Rottb.; assay: Preemergence weed control under flooded paddy conditions, CYPSE (Flatsedge); settings: preemergence; on herbicidal effect rating, CYPSE: meaning of each grade not given here
Cyperus iria = assay: Preemergence weed control under flooded paddy conditions, CYPIR (Rice Flatsedge); settings: preemergence, flooded paddy; on herbicidal effect rating, CYPIR: meaning of each grade not given here
[4] = 0.0320 kg/ha, rated three to four weeks after treatment
[5] = 0.0620 kg/ha, rated three to four weeks after treatment
[6] = 0.1250 kg/ha, rated three to four weeks after treatment
[7] = 0.2500 kg/ha, rated three to four weeks after treatment
[8] = Rate 0.0320 kg/ha, rated three to four weeks after treatment
[9] = Rate 0.0620 kg/ha, rated three to four weeks after treatment
[10] = Rate 0.1250 kg/ha, rated three to four weeks after treatment
[11] = Rate 0.2500 kg/ha, rated three to four weeks after treatment
[12] = 0.0313 kg/ha, rated three to four weeks after treatment
[13] = 0.0625 kg/ha, rated three to four weeks after treatment
[14] = Rate 0.0320 kg/ha, rated 3-4 weeks after treatment
[15] = Rate 0.0620 kg/ha, rated 3-4 weeks after treatment
[16] = Rate 0.1250 kg/ha, rated 3-4 weeks after treatment
[17] = Rate 0.2500 kg/ha, rated 3-4 weeks after treatment

| Compound | herbicidal effect rating, MOOVA [1, 8] | herbicidal effect rating, MOOVA [1, 9] | herbicidal effect rating, MOOVA [1, 10] | herbicidal effect rating, MOOVA [1, 11] | herbicidal effect rating, ECHORC [2, 8] | herbicidal effect rating, ECHORC [2, 9] | herbicidal effect rating, ECHORC [2, 10] | herbicidal effect rating, ECHORC [2, 11] | herbicidal effect rating, SAGPY (Sagittaria pygmaea, L.; [8]) | herbicidal effect rating, SAGPY (Sagittaria pygmaea, L.; [9]) | herbicidal effect rating, SAGPY (Sagittaria pygmaea, L.; [10]) | herbicidal effect rating, SAGPY (Sagittaria pygmaea, L.; [11]) | herbicidal effect rating, CYPSE [3, 9] | herbicidal effect rating, CYPSE [3, 10] | herbicidal effect rating, CYPSE [3, 11] | herbicidal effect rating, CYPIR (Cyperus iria; [8]) | herbicidal effect rating, CYPIR (Cyperus iria; [9]) | herbicidal effect rating, CYPIR (Cyperus iria; [10]) | herbicidal effect rating, CYPIR (Cyperus iria; [11]) | herbicidal effect rating, CYPSE [3, 8] | further results |
| --- | --- | --- | --- | --- | --- | --- | --- | --- | --- | --- | --- | --- | --- | --- | --- | --- | --- | --- | --- | --- | --- |
| COc1ccc(OC)c(CC(=O)OCc2nsc3ccc(-n4c(=O)cc(C(F)(F)F)n(C)c4=O)cc23)c1 [Example 503, 2,4(1H,3H)-Pyrimidinedione, 3-[3-(hydroxymethyl)-1,2-benzisothiazol-5-yl]-1-methyl-6-(trifluoromethyl)-, (2,5-dimethoxyphenyl)acetate (ester)] |  |  |  |  |  |  |  |  |  |  |  |  |  |  |  |  |  |  |  |  | MOOVA herbicidal rating [1, 4]: 7.0; MOOVA herbicidal rating [1, 5]: 9.0; MOOVA herbicidal rating [1, 6]: 9.0; MOOVA herbicidal rating [1, 7]: 9.0; ECHORC herbicidal rating [2, 4]: 2.0; ECHORC herbicidal rating [2, 5]: 4.0; ECHORC herbicidal rating [2, 6]: 6.0; ECHORC herbicidal rating [2, 7]: 6.0; SAGPY herbicidal rating (Sagittaria pygmaea, L.; [4]): 0.0; SAGPY herbicidal rating (Sagittaria pygmaea, L.; [5]): 3.0; SAGPY herbicidal rating (Sagittaria pygmaea, L.; [6]): 4.0; SAGPY herbicidal rating (Sagittaria pygmaea, L.; [7]): 8.0; CYPSE herbicidal rating [3, 6]: 5.0; CYPSE herbicidal rating [3, 7]: 6.0; CYPIR herbicidal rating (Cyperus iria; [4]): 0.0; CYPIR herbicidal rating (Cyperus iria; [5]): 6.0; CYPIR herbicidal rating (Cyperus iria; [6]): 9.0; CYPIR herbicidal rating (Cyperus iria; [7]): 7.0 |
| C=CCC(c1nsc2ccc(-n3c(=O)cc(C(F)(F)F)n(C)c3=O)cc12)S(C)(=O)=O (stereo not shown) [Example 602, 2,4(1H,3H)-Pyrimidinedione, 1-methyl-3-{3-[1-(methylsulfonyl)-3-butenyl]-1,2-benzisothiazol-5-yl}-6-(trifluoromethyl)-] | 7.0 | 7.0 | 8.0 | 9.0 | 0.0 | 5.0 | 9.0 | 9.0 | 0.0 | 0.0 | 0.0 | 3.0 | 0.0 | 7.0 | 9.0 | 3.0 | 3.0 | 5.0 | 5.0 |  |  |
| COc1ccc(CC(=O)OCc2nsc3ccc(-n4c(=O)cc(C(F)(F)F)n(C)c4=O)cc23)cc1OC [Example 502, 2,4(1H,3H)-Pyrimidinedione, 3-[3-(hydroxymethyl)-1,2-benzisothiazol-5-yl]-1-methyl-6-(trifluoromethyl)-, (3,4-dimethoxyphenyl)acetate (ester)] |  |  |  |  |  |  |  |  |  |  |  |  |  |  |  |  |  |  |  |  | MOOVA herbicidal rating [1, 4]: 6.0; MOOVA herbicidal rating [1, 5]: 6.0; MOOVA herbicidal rating [1, 6]: 7.0; MOOVA herbicidal rating [1, 7]: 9.0; ECHORC herbicidal rating [2, 4]: 3.0; ECHORC herbicidal rating [2, 5]: 3.0; ECHORC herbicidal rating [2, 6]: 5.0; ECHORC herbicidal rating [2, 7]: 7.0; SAGPY herbicidal rating (Sagittaria pygmaea, L.; [4]): 0.0; SAGPY herbicidal rating (Sagittaria pygmaea, L.; [5]): 2.0; SAGPY herbicidal rating (Sagittaria pygmaea, L.; [6]): 5.0; SAGPY herbicidal rating (Sagittaria pygmaea, L.; [7]): 9.0; CYPSE herbicidal rating [3, 4]: 0.0; CYPSE herbicidal rating [3, 5]: 2.0; CYPSE herbicidal rating [3, 7]: 5.0; CYPIR herbicidal rating (Cyperus iria; [4]): 4.0; CYPIR herbicidal rating (Cyperus iria; [5]): 6.0; CYPIR herbicidal rating (Cyperus iria; [6]): 9.0; CYPIR herbicidal rating (Cyperus iria; [7]): 9.0 |
| CC(=O)OCc1nsc2ccc(-n3c(=O)cc(C(F)(F)F)n(C)c3=O)cc12 [Example 32, 3-[3-(Hydroxymethyl)-1,2-benzisothiazol-5-yl]-1-methyl-6-(trifluoromethyl)-2,4(1H,3H)-pyrimidinedione, acetate ester] |  |  |  |  |  |  |  |  |  |  |  |  |  |  |  |  |  |  |  |  | herbicidal effect rating, MOOVA [1, 12]: 8.0; herbicidal effect rating, MOOVA [1, 13]: 9.0; herbicidal effect rating, MOOVA [1, 6]: 9.0; herbicidal effect rating, MOOVA [1, 7]: 9.0; herbicidal effect rating, ECHORC [2, 12]: 2.0; herbicidal effect rating, ECHORC [2, 13]: 3.5; herbicidal effect rating, ECHORC [2, 6]: 4.5; herbicidal effect rating, ECHORC [2, 7]: 7.5; herbicidal effect rating, SAGPY (Sagittaria pygmaea, L.; [12]): 0.0; herbicidal effect rating, SAGPY (Sagittaria pygmaea, L.; [13]): 0.0; herbicidal effect rating, SAGPY (Sagittaria pygmaea, L.; [6]): 2.0; herbicidal effect rating, SAGPY (Sagittaria pygmaea, L.; [7]): 9.0; herbicidal effect rating, CYPSE [3, 12]: 0.0; herbicidal effect rating, CYPSE [3, 13]: 0.0; herbicidal effect rating, CYPSE [3, 6]: 2.0; herbicidal effect rating, CYPSE [3, 7]: 7.0; herbicidal effect rating, CYPIR (Cyperus iria; [12]): 4.0; herbicidal effect rating, CYPIR (Cyperus iria; [13]): 6.0; herbicidal effect rating, CYPIR (Cyperus iria; [6]): 8.0; herbicidal effect rating, CYPIR (Cyperus iria; [7]): 9.0 |
| C#CCC(c1nsc2ccc(-n3c(=O)cc(C(F)(F)F)n(C)c3=O)cc12)S(C)(=O)=O (stereo not shown) [Example 603, 2,4(1H,3H)-Pyrimidinedione, 1-methyl-3-{3-[1-(methylsulfonyl)-3-butynyl]-1,2-benzisothiazol-5-yl}-6-(trifluoromethyl)-] | 7.0 | 7.0 | 9.0 | 9.0 | 0.0 | 4.0 | 6.0 | 8.0 | 0.0 | 0.0 | 2.0 | 4.0 |  | 8.0 | 9.0 | 5.0 |  | 6.0 | 7.0 | 0.0 |  |
| CCC(C)S(=O)(=O)NC(=O)c1nsc2ccc(-n3c(=O)cc(C(F)(F)F)n(C)c3=O)cc12 (stereo not shown) [Example 395, 1,2-Benzisothiazole-3-carboxamide, 5-[3,6-dihydro-3-methyl-2,6-dioxo-4-(trifluoromethyl)-1(2H)-pyrimidinyl]-N-[(1-methylpropyl)sulfonyl]-] | 9.0 | 9.0 | 9.0 | 9.0 | 0.0 | 0.0 | 2.0 | 3.0 | 0.0 | 2.0 | 4.0 | 5.0 | 0.0 | 0.0 | 0.0 | 0.0 | 0.0 | 0.0 | 3.0 | 0.0 |  |
| CC(C)S(=O)(=O)OCc1nsc2ccc(-n3c(=O)cc(C(F)(F)F)n(C)c3=O)cc12 [Example 371, 2,4(1H,3H)-Pyrimidinedione, 3-[3-(hydroxymethyl)-1,2-benzisothiazol-5-yl]-1-methyl-6-(trifluoromethyl)-, 1-methylethanesulfonate (ester)] | 9.0 | 9.0 | 9.0 | 9.0 | 3.0 | 4.0 | 6.0 | 7.0 | 3.0 | 4.0 | 9.0 | 9.0 | 0.0 | 6.0 | 9.0 | 4.0 | 6.0 | 9.0 | 9.0 | 0.0 |  |
| CCOC(=O)C1CCC(OC(=O)COc2ccc(C)cc2-c2nsc3ccc(-n4c(=O)cc(C(F)(F)F)n(C)c4=O)cc23)CC1 (single isomer, unassigned; isomer a) [Example 524, Acetic acid, {{2-{5-[3,6-dihydro-3-methyl-2,6-dioxo-4-(trifluoromethyl)-1(2H)-pyrimidinyl]-1,2-benzisothiazol-3-yl}-p-tolyl}oxy}-, ester with ethyl 4-hydroxycyclohexanecarboxylate, isomer A] |  |  |  |  |  |  |  |  |  |  |  |  |  |  |  |  |  |  |  |  | herbicidal effect rating, MOOVA [1, 14]: 9.0; herbicidal effect rating, MOOVA [1, 15]: 9.0; herbicidal effect rating, MOOVA [1, 16]: 9.0; herbicidal effect rating, MOOVA [1, 17]: 9.0; herbicidal effect rating, ECHORC [2, 14]: 7.0; herbicidal effect rating, ECHORC [2, 15]: 9.0; herbicidal effect rating, ECHORC [2, 16]: 9.0; herbicidal effect rating, ECHORC [2, 17]: 9.0; herbicidal effect rating, SAGPY (Sagittaria pygmaea, L.; [14]): 0.0; herbicidal effect rating, SAGPY (Sagittaria pygmaea, L.; [15]): 0.0; herbicidal effect rating, SAGPY (Sagittaria pygmaea, L.; [16]): 0.0; herbicidal effect rating, SAGPY (Sagittaria pygmaea, L.; [17]): 0.0; herbicidal effect rating, CYPSE [3, 14]: 0.0; herbicidal effect rating, CYPSE [3, 15]: 0.0; herbicidal effect rating, CYPSE [3, 16]: 2.0; herbicidal effect rating, CYPSE [3, 17]: 6.0; herbicidal effect rating, CYPIR (Cyperus iria; [14]): 2.0; herbicidal effect rating, CYPIR (Cyperus iria; [15]): 2.0; herbicidal effect rating, CYPIR (Cyperus iria; [16]): 4.0; herbicidal effect rating, CYPIR (Cyperus iria; [17]): 7.0 |
